This is an account of results in ChEMBL document CHEMBL1201862, “PubChem BioAssay data set” (2004).

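The compound was tested at five concentrations on cells cultured in 96-well plates, with a 48-hour exposure period. GI50 is the concentration that inhibits growth by half.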 Activity calls are given as the source filed them. Cut-off read from the data, not from the text of the source: active = GI50 up to about 1.1 µM and inactive = higher.

Among the test systems are SF-268; NCI-H226; SN12C; OVCAR-5; HCC 2998; HT-29; OVCAR-8; UACC-62; U-251; BT-549; CAKI-1; HCT-116; HCT-15; MOLT-4; SW-620; CCRF-CEM; A549; K562; UO-31; NCI-H522.
Test in all cases: inhibition of tumour cell growth, NCI panel, 48 h

Turning to `CCN(CC)c1ccc2cc(C(N)=O)c(=N)oc2c1`, the GI50 with SF-268 was 42.3 µM (inactive); with NCI-H226 it was 19.7 µM (inactive); in the experiment with SN12C, 31.3 µM (inactive); in the experiment with OVCAR-5, 51.5 µM (inactive); in the experiment on HCC 2998, 5.36 µM (inactive); in the experiment with HT-29, 51.5 µM (inactive). In addition, the GI50 is 50 µM (inactive) in the experiment on OVCAR-8; 30.8 µM (inactive) in the experiment with UACC-62; 98.6 µM (inactive) in the experiment with U-251; 52.5 µM (inactive) in the experiment with BT-549; 35.4 µM (inactive) in the experiment on CAKI-1; 35.1 µM (inactive) with HCT-116. Further, the GI50 was 35 µM with HCT-15; 69.2 µM (inactive) in the experiment with MOLT-4; 47.4 µM (inactive) in the experiment with SW-620; 31.2 µM (inactive) with CCRF-CEM; 37.4 µM (inactive) in the experiment with A549; > 100 µM (inactive) with K562.

As to `CC(C)(C)C(=O)OCC1CCC[N+]2(C)CCCCC12` (centres undefined), the GI50 in the experiment with SF-268, in the experiment on NCI-H226, in the experiment with SN12C, in the experiment with OVCAR-5, in the experiment with HCC 2998 and in the experiment with HT-29 was > 100 µM (inactive) throughout. For the same compound, the GI50 with OVCAR-8, with UACC-62, in the experiment on U-251, with BT-549, in the experiment with CAKI-1 and in the experiment on HCT-116 was > 100 µM (inactive) in each case. For the same compound, the GI50 in the experiment with HCT-15 was over 100 µM; with MOLT-4, > 100 µM (inactive); with SW-620, > 100 µM (inactive); with CCRF-CEM it was > 100 µM (inactive); with UO-31 it was > 100 µM (inactive); in the experiment with A549, > 100 µM (inactive). The GI50 in the experiment on K562 is > 100 µM (inactive).

As to `CCOC(=O)C1=CN=C2C(=O)N(c3ccccc3)N(C)C2(C)C1=N` (centres undefined), the GI50 with NCI-H226, in the experiment with SN12C, in the experiment with OVCAR-5, with HCC 2998, with OVCAR-8 and in the experiment with UACC-62 was > 100 µM (inactive) each time. Also, the GI50 was > 100 µM (inactive) in the experiment with U-251; > 100 µM (inactive) in the experiment on BT-549; > 100 µM (inactive) in the experiment on CAKI-1; > 100 µM (inactive) in the experiment on HCT-116; over 100 µM in the experiment on HCT-15; > 100 µM (inactive) in the experiment on SW-620. The GI50 in the experiment with CCRF-CEM, with UO-31, in the experiment on A549, in the experiment with K562 and in the experiment with NCI-H522 was > 100 µM (inactive) throughout.

For the compound `COc1ccc2c(c1)CC1COc3cc(OC)ccc3C1O2` (centres undefined), the GI50 in the experiment on SF-268 was 52.5 µM (inactive); with NCI-H226, 23 µM (inactive); with SN12C, > 100 µM (inactive); in the experiment on OVCAR-5, > 100 µM (inactive); in the experiment with HCC 2998, > 100 µM (inactive); with HT-29, 65.3 µM (inactive). The GI50 in the experiment on OVCAR-8 was 71.8 µM (inactive); with UACC-62 it was > 100 µM (inactive); in the experiment on U-251 it was 36.6 µM (inactive); in the experiment on BT-549, 44.8 µM (inactive); in the experiment with CAKI-1, > 100 µM (inactive); in the experiment on HCT-116, > 100 µM (inactive). The GI50 with HCT-15 was over 100 µM; with MOLT-4, > 100 µM (inactive); with SW-620, > 100 µM (inactive); with CCRF-CEM it was > 100 µM (inactive); in the experiment with UO-31, > 100 µM (inactive); in the experiment with A549, > 100 µM (inactive). Besides, the GI50 in the experiment on NCI-H522 was 55 µM (inactive).

Take `O=C1OS2(OCc3cccc4cccc2c34)c2ccccc21` (centres undefined): the GI50 in the experiment with SF-268, in the experiment with NCI-H226, in the experiment with SN12C, in the experiment on OVCAR-5, with HCC 2998 and in the experiment with HT-29 was > 100 µM (inactive) throughout. Besides, the GI50 in the experiment on UACC-62 was > 100 µM (inactive); in the experiment on U-251 it was > 100 µM (inactive); in the experiment with BT-549 it was > 100 µM (inactive); with CAKI-1 it was > 100 µM (inactive); in the experiment with HCT-116, > 100 µM (inactive); in the experiment with HCT-15, over 100 µM. Also, the GI50 in the experiment on MOLT-4 was > 100 µM (inactive); in the experiment with SW-620, > 100 µM (inactive); with CCRF-CEM, 40.3 µM (inactive); with UO-31 it was > 100 µM (inactive); in the experiment on A549, > 100 µM (inactive); with K562, > 100 µM (inactive). For the same compound, the GI50 in the experiment with NCI-H522 was 50.8 µM (inactive).

Consider `CC(=S)NC=C(C(N)=O)C(N)=O`, for which the GI50 in the experiment with SF-268, in the experiment with NCI-H226, with SN12C, in the experiment on OVCAR-5, with HCC 2998 and in the experiment with HT-29 was > 100 µM (inactive) each time. Moreover, the GI50 with OVCAR-8, with UACC-62, with U-251, in the experiment with BT-549, in the experiment with CAKI-1 and in the experiment with HCT-116 was > 100 µM (inactive) throughout. Moreover, the GI50 is over 100 µM in the experiment with HCT-15; > 100 µM (inactive) in the experiment on MOLT-4; > 100 µM (inactive) in the experiment on SW-620; > 100 µM (inactive) in the experiment on CCRF-CEM; > 100 µM (inactive) with A549; > 100 µM (inactive) in the experiment with K562. Besides, the GI50 in the experiment with NCI-H522 is > 100 µM (inactive).

Turning to `COC(=O)C1C(O)C(C)C(O)C(C)C=C(C)C2=C3C(=C(C)C(=O)c4c(O)c(c(C)c(OC(C)=O)c43)NC(=O)C(C)=C/C=C\C(C)C(O)C(C)C1O)OCO2` (centres undefined), the GI50 in the experiment on SF-268 was 16.1 µM (inactive); with NCI-H226, 55.2 µM (inactive); in the experiment on SN12C, 37.4 µM (inactive); in the experiment on OVCAR-5 it was > 100 µM (inactive); in the experiment on HCC 2998 it was 34.3 µM (inactive); in the experiment with HT-29, 27.7 µM (inactive). Further, the GI50 is 27.7 µM (inactive) with OVCAR-8; 28 µM (inactive) in the experiment on UACC-62; 45.4 µM (inactive) in the experiment with U-251; 19.6 µM (inactive) in the experiment with BT-549; 31.8 µM (inactive) in the experiment with HCT-116; 22.4 µM in the experiment on HCT-15. Further, the GI50 in the experiment with MOLT-4 was 15.6 µM (inactive); in the experiment with SW-620, 23.9 µM (inactive); in the experiment with CCRF-CEM, 23.6 µM (inactive); in the experiment with UO-31 it was 25.9 µM (inactive); in the experiment with A549, 54 µM (inactive); with K562 it was 18.6 µM (inactive). Moreover, the GI50 in the experiment with NCI-H522 is 16 µM (inactive).

Regarding `O=C(O)[C@@H]1NC[C@H]2C(Br)=NO[C@H]21`, the GI50 in the experiment on SF-268, in the experiment with NCI-H226, with SN12C, with OVCAR-5, with HCC 2998 and in the experiment with HT-29 was > 100 µM (inactive) in each case. Moreover, the GI50 in the experiment on OVCAR-8, in the experiment with UACC-62, with U-251, with BT-549, with CAKI-1 and in the experiment on HCT-116 was > 100 µM (inactive) throughout. The GI50 in the experiment on HCT-15 was over 100 µM; in the experiment on MOLT-4, 29.3 µM (inactive); with SW-620, > 100 µM (inactive); in the experiment on CCRF-CEM it was > 100 µM (inactive); in the experiment with UO-31, > 100 µM (inactive); with A549, > 100 µM (inactive). Also, in the experiment with NCI-H522, the GI50 is > 100 µM (inactive).

On to `CNC(=S)/N=c1/sc(NC)nc2sc3c(c12)CCCC3`, for which the GI50 with SF-268 was 34.6 µM (inactive); in the experiment with NCI-H226, > 100 µM (inactive); in the experiment on SN12C, > 100 µM (inactive); in the experiment on OVCAR-5, > 100 µM (inactive); in the experiment with HCC 2998, > 100 µM (inactive); with HT-29, > 100 µM (inactive). Further, the GI50 in the experiment on UACC-62 is > 100 µM (inactive); with U-251, 35.4 µM (inactive); with BT-549 it was 47.1 µM (inactive); in the experiment on CAKI-1, > 100 µM (inactive); in the experiment on HCT-116, > 100 µM (inactive); with HCT-15, over 100 µM. For the same compound, the GI50 with MOLT-4 was > 100 µM (inactive); with SW-620 it was > 100 µM (inactive); with CCRF-CEM, > 100 µM (inactive); with UO-31, > 100 µM (inactive); in the experiment with K562 it was > 100 µM (inactive); in the experiment with NCI-H522, 36.4 µM (inactive).

As to `CC(=O)N[C@@H](Cc1ccc(O)cn1)C(=O)NCc1cccc(Cl)c1`, the GI50 in the experiment on SF-268, in the experiment with NCI-H226, in the experiment with SN12C, in the experiment with OVCAR-5, with HCC 2998 and in the experiment on HT-29 was > 100 µM (inactive) each time. The GI50 in the experiment with UACC-62 was > 100 µM (inactive); in the experiment with U-251, > 100 µM (inactive); in the experiment with BT-549, > 100 µM (inactive); in the experiment on CAKI-1, > 100 µM (inactive); in the experiment with HCT-116, > 100 µM (inactive); with HCT-15, over 100 µM. Besides, the GI50 in the experiment on MOLT-4, in the experiment with SW-620, in the experiment with CCRF-CEM, in the experiment with UO-31, in the experiment on A549 and in the experiment with K562 was > 100 µM (inactive) throughout. For the same compound, in the experiment on NCI-H522, the GI50 was > 100 µM (inactive).

As to `COc1cc(OC)cc(-c2nc3cc(F)ccc3s2)c1`, the GI50 in the experiment on SF-268 was 13.8 µM (inactive); in the experiment on NCI-H226, 13.7 µM (inactive); in the experiment with SN12C, 36.4 µM (inactive); in the experiment on OVCAR-5 it was 24.9 µM (inactive); in the experiment with HCC 2998, < 0.01 µM (active); in the experiment on HT-29 it was > 100 µM (inactive). The GI50 in the experiment on OVCAR-8 was 30.8 µM (inactive); with UACC-62, 16.4 µM (inactive); in the experiment with U-251, 15.1 µM (inactive); in the experiment on BT-549, 11 µM (inactive); with CAKI-1, 40.2 µM (inactive); in the experiment with HCT-116 it was 13.6 µM (inactive). Besides, the GI50 is 55.1 µM in the experiment on HCT-15; > 100 µM (inactive) in the experiment with SW-620; > 100 µM (inactive) in the experiment on CCRF-CEM; 31 µM (inactive) with UO-31; > 100 µM (inactive) in the experiment with A549; 19 µM (inactive) in the experiment on NCI-H522.
